The test system of the test is MEK. Kind of test: Cellular assay for measuring MEK inhibition, C26CPA1 (inhibition of ERK phosphorylation in C26 cells). Type of test: cell-based, murine. The following applies: for C26CPA1 % Inhibition @ 0.1 μM / C26CPA1 % Inhibition @ 1 μM: C26 cells; for IC50: murine colon 26 (C26) carcinoma cells, one hour at 37 C. Here is the method:
Cellular Assay for Measuring MEK Inhibition
MEK inhibitors were evaluated by determining their ability to inhibit phosphorylation of MAP kinase (ERK) in murine colon 26 (C26) carcinoma cells. Since ERK1 and ERK2 represent the only known substrates for MEK1 and MEK2, the measurement of inhibition of ERK phosphorylation in cells provides direct read out of cellular MEK inhibition by the compounds of the invention. Detection of phosphorylation of ERK was carried out either by Western blot or ELISA format. Briefly, the assays involve treatment of exponentially growing C26 cells with varying concentrations of the test compound (or vehicle control) for one hour at 37≡ C. For Western blot assay, cells were rinsed free of compound/vehicle and lysed in a solution containing 70 mM NaCl, 50 mM glycerol phosphate, 10 mM HEPES, […], 1% Triton X-100, 1 mM Na3VO4, 100 μM PMSF, 10 μM leupeptin and 10 μM pepstatin. Supernatants were then subjected to gel electrophoresis and hybridized to a primary antibody recognizing dually phosphorylated ERK1 and ERK2. To evaluate total MAPK levels, blots were subsequently ‘stripped’ and re-probed with a 1:1 mixture of polyclonal antibodies recognizing unphosphorylated ERK1 and ERK2. For pERK ELISA assay, pERK TiterZyme Enzyme immunometric Assay kits were acquired from Assay Designs, Inc (Ann Arbor, Mich.). Briefly, cells were harvested in lysis solution containing 50 mM β-glycerophosphate, 10 mM HEPES, pH7.4, 70 mM NaCl, 2 mM EDTA and 1% SDS and protein lysates were diluted 1:15 with supplied Assay buffer prior to the execution of the assay. The subsequent steps were carried out essentially as recommended by the manufacturer.

“And” between values parts separate entries of the source, which are not always exact repeats. Equal values may be shown once.

Consider `CC(Nc1nnc(-c2ccc(F)c(F)c2Nc2ccc(I)cc2F)o1)C(C)(C)C` (centres unmarked) [Example 49, {5-[3,4-Difluoro-2-(2-fluoro-4-iodo-phenylamino)-phenyl]-[1,3,4]oxadiazol-2-yl}-(1,2,2-trimethyl-propyl)-amine], for which the “C26CPA1 % Inhibition @ 0.1 μM” value came to 0% and the “C26CPA1 % Inhibition @ 1 μM” value is recorded as 0%.
On to `CCC(C)CNc1nnc(-c2ccc(F)c(F)c2Nc2ccc(I)cc2F)o1` (centres unmarked) [Example 50, {5-[3,4-Difluoro-2-(2-fluoro-4-iodo-phenylamino)-phenyl]-[1,3,4]oxadiazol-2-yl}-(2-methyl-butyl)-amine], for which the “C26CPA1 % Inhibition @ 0.1 μM” value came out at 0% and the “C26CPA1 % Inhibition @ 1 μM” value amounted to 15.2%.
For `Fc1cc(I)ccc1Nc1c(-c2nnc(NC3CC4CCC3C4)o2)ccc(F)c1F` (centres unmarked) [Example 51, Bicyclo[2,2,1]hept-2-yl-{5-[3,4-difluoro-2-(2-fluoro-4-iodo-phenylamino)-phenyl]-[1,3,4]oxadiazol-2-yl}-amine], in that order: 13.1% and 96%.
As to `Cn1cccc1CCNc1nnc(-c2ccc(F)c(F)c2Nc2ccc(I)cc2F)o1` [Example 52, {5-[3,4-Difluoro-2-(2-fluoro-4-iodo-phenylamino)-phenyl]-[1,3,4]oxadiazol-2-yl}-[2-(1-methyl-1H-pyrrol-2-yl)-ethyl]-amine], the IC50 (in general, the concentration that gives 50% inhibition) was 86 nM.
Same read-out and setting: the result for `Cn1cnc(CCNc2nnc(-c3ccc(F)c(F)c3Nc3ccc(I)cc3F)o2)c1` [Example 53, {5-[3,4-Difluoro-2-(2-fluoro-4-iodo-phenylamino)-phenyl]-[1,3,4]oxadiazol-2-yl}-[2-(1-methyl-1H-imidazol-4-yl)-ethyl]-amine] reads 230 nM.
As for `Fc1cc(I)ccc1Nc1c(-c2nnc(N3CCCC3CN3CCCC3)o2)ccc(F)c1F` (centres unmarked) [Example 54, {2,3-Difluoro-6-[5-(2-pyrrolidin-1-ylmethyl-pyrrolidin-1-yl)-[1,3,4]oxadiazol-2-yl]-phenyl}-(2-fluoro-4-iodo-phenyl)-amine], the “C26CPA1 % Inhibition @ 0.1 μM” value came to 21.7% and the “C26CPA1 % Inhibition @ 1 μM” value is 30.8%.
With `COCC(C)Nc1nnc(-c2ccc(F)c(F)c2Nc2ccc(I)cc2F)o1` (centres unmarked) [Example 55, {5-[3,4-Difluoro-2-(2-fluoro-4-iodo-phenylamino)-phenyl]-[1,3,4]oxadiazol-2-yl}-(2-methoxy-1-methyl-ethyl)-amine], the “C26CPA1 % Inhibition @ 0.1 μM” value was found to be 23.9% and the “C26CPA1 % Inhibition @ 1 μM” value is 25.2%.
`CCOCCCNc1nnc(-c2ccc(F)c(F)c2Nc2ccc(I)cc2F)o1` [Example 56, {5-[3,4-Difluoro-2-(2-fluoro-4-iodo-phenylamino)-phenyl]-[1,3,4]oxadiazol-2-yl}-(3-ethoxy-propyl)-amine] registered an IC50 of 44 nM.
On to `O=C1OCCC1Nc1nnc(-c2ccc(F)c(F)c2Nc2ccc(I)cc2F)o1` (centres unmarked) [Example 57, 3-{5-[3,4-Difluoro-2-(2-fluoro-4-iodo-phenylamino)-phenyl]-[1,3,4]oxadiazol-2-ylamino}-dihydro-furan-2-one], for which the “C26CPA1 % Inhibition @ 0.1 μM” value stood at 31.3% and the “C26CPA1 % Inhibition @ 1 μM” value turned out to be 51.8%.
For `CCOC(=O)CCNc1nnc(-c2ccc(F)c(F)c2Nc2ccc(I)cc2F)o1` [Example 58, 3-{5-[3,4-Difluoro-2-(2-fluoro-4-iodo-phenylamino)-phenyl]-[1,3,4]oxadiazol-2-ylamino}-propionic Acid Ethyl Ester], in that order: 0% and 17.8%.
For the compound `Cc1cccc(C)c1OCC(C)Nc1nnc(-c2ccc(F)c(F)c2Nc2ccc(I)cc2F)o1` (centres unmarked) [Example 59, {5-[3,4-Difluoro-2-(2-fluoro-4-iodo-phenylamino)-phenyl]-[1,3,4]oxadiazol-2-yl}-[2-(2,6-dimethyl-phenoxy)-1-methyl-ethyl]-amine], the “C26CPA1 % Inhibition @ 0.1 μM” value turned out to be 0% and the “C26CPA1 % Inhibition @ 1 μM” value worked out at 0%.
Take `CCN(CC)C1CCN(c2nnc(-c3ccc(F)c(F)c3Nc3ccc(I)cc3F)o2)C1` (centres unmarked) [Example 60, (1-{5-[3,4-Difluoro-2-(2-fluoro-4-iodo-phenylamino)-phenyl]-[1,3,4]oxadiazol-2-yl}-pyrrolidin-3-yl)-diethyl-amine]: the “C26CPA1 % Inhibition @ 0.1 μM” value came out at 8.2% and the “C26CPA1 % Inhibition @ 1 μM” value amounted to 68%.
`CN1CCCN(c2nnc(-c3ccc(F)c(F)c3Nc3ccc(I)cc3F)o2)CC1` [Example 61, {2,3-Difluoro-6-[5-(4-methyl-[1,4]diazepan-1-yl)-[1,3,4]oxadiazol-2-yl]-phenyl}-(2-fluoro-4-iodo-phenyl)-amine] had an IC50 of 850 nM.
With `CN1CCCC1CCNc1nnc(-c2ccc(F)c(F)c2Nc2ccc(I)cc2F)o1` (centres unmarked) [Example 62, {5-[3,4-Difluoro-2-(2-fluoro-4-iodo-phenylamino)-phenyl]-[1,3,4]oxadiazol-2-yl}-[2-(1-methyl-pyrrolidin-2-yl)-ethyl]-amine], the “C26CPA1 % Inhibition @ 0.1 μM” value is on record as 53.7% and the “C26CPA1 % Inhibition @ 1 μM” value is on record as 98.5%.
Regarding `Fc1cc(I)ccc1Nc1c(-c2nnc(NCCCCN3CCCC3)o2)ccc(F)c1F` [Example 63, {5-[3,4-Difluoro-2-(2-fluoro-4-iodo-phenylamino)-phenyl]-[1,3,4]oxadiazol-2-yl}-(4-pyrrolidin-1-yl-butyl)-amine], half-maximal inhibition (IC50) required 23 nM. This lies in the double-digit nanomolar range.
Turning to `CCN(CC)CCCC(C)Nc1nnc(-c2ccc(F)c(F)c2Nc2ccc(I)cc2F)o1` (centres unmarked) [Example 64, N*4*-{5-[3,4-Difluoro-2-(2-fluoro-4-iodo-phenylamino)-phenyl]-[1,3,4]oxadiazol-2-yl}-N*1* ,N*1*-diethyl-pentane-1,4-diamine], the “C26CPA1 % Inhibition @ 0.1 μM” value worked out at 0% and the “C26CPA1 % Inhibition @ 1 μM” value was determined as 18.2%.
Take `Fc1cc(I)ccc1Nc1c(-c2nnc(NCC3CCCO3)o2)ccc(F)c1F` (centres unmarked) [Example 65, {5-[3,4-Difluoro-2-(2-fluoro-4-iodo-phenylamino)-phenyl]-[1,3,4]oxadiazol-2-yl}-(tetrahydro-furan-2-ylmethyl)-amine]: the “C26CPA1 % Inhibition @ 0.1 μM” value is 0% and the “C26CPA1 % Inhibition @ 1 μM” value turned out to be 12.7%.
In the case of `COCCN(CCOC)c1nnc(-c2ccc(F)c(F)c2Nc2ccc(I)cc2F)o1` [Example 66, {5-[3,4-Difluoro-2-(2-fluoro-4-iodo-phenylamino)-phenyl]-[1,3,4]oxadiazol-2-yl}-bis-(2-methoxy-ethyl)-amine], the “C26CPA1 % Inhibition @ 0.1 μM” value is recorded as 0% and the “C26CPA1 % Inhibition @ 1 μM” value is 12.5%.
Take `CCc1ccc(Nc2c(-c3nnc(N4CCCC4)o3)ccc(F)c2F)c(F)c1` [Example 75, [2,3-Difluoro-6-(5-pyrrolidin-1-yl-1,3,4-oxadiazol-2-yl)-phenyl]-(4-ethyl-2-fluoro-phenyl)-amine]: the “C26CPA1 % Inhibition @ 1 μM” value was 39.1% and 30.6%.
Consider `C=CCN(CC=C)c1nnc(-c2ccc(F)c(F)c2Nc2ccc(CC)cc2F)o1` [Example 83, Diallyl-{5-[2-(4-ethyl-2-fluoro-phenylamino)-3,4-difluoro-phenyl]-1,3,4-oxadiazol-2-yl}-amine], for which the “C26CPA1 % Inhibition @ 0.1 μM” value was 65.6% and the “C26CPA1 % Inhibition @ 1 μM” value came to 77.9%.
For `CCc1ccc(Nc2c(-c3nnc(N(C)CCCN(C)C)o3)ccc(F)c2F)c(F)c1` [Example 93, N^1-{5-[2-(4-Ethyl-2-fluoro-phenylamino)-3,4-difluoro-phenyl]-1,3,4-oxadiazol-2-yl}-N1,N>3,N>3-trimethyl-propane-1.3-diamine] the same measures were 0% and 31.9%.
As to `CCc1ccc(Nc2c(-c3nnc(N(CCCN(C)C)CCCN(C)C)o3)ccc(F)c2F)c(F)c1` [Example 96, N^1-(3-Dimethylamino-propyl)-N^1-{5-[2-(4-ethyl-2-fluoro-phenylamino)-3,4-difluoro-phenyl]-1,3,4-oxadiazol-2-yl}-N>3,N>3-dimethyl-propane-1,3-diamine], the “C26CPA1 % Inhibition @ 0.1 μM” value came out at 54% and the “C26CPA1 % Inhibition @ 1 μM” value was 55%.
For `CCCN(CC1CC1)c1nnc(-c2ccc(F)c(F)c2Nc2ccc(CC)cc2F)o1` [Example 100, Cyclopropylmethyl-{5-[2-(4-ethyl-2-fluoro-phenylamino)-3,4-difluoro-phenyl]-1,3,4-oxadiazol-2-yl}-propyl-amine], in that order: 37.1% and 40.5%.
Take `CCc1ccc(Nc2c(-c3nnc(N4CCN(CC)CC4)o3)ccc(F)c2F)c(F)c1` [Example 101, (4-Ethyl-2-fluoro-phenyl)-{6-[5-(4-ethyl-piperazin-1-yl)-1,3,4-oxadiazol-2-yl]-2,3-difluoro-phenyl}-amine]: the “C26CPA1 % Inhibition @ 0.1 μM” value turned out to be 41.2% and the “C26CPA1 % Inhibition @ 1 μM” value is on record as 47.1%.
For `CCc1ccc(Nc2c(-c3nnc(N(C)C4CCN(C)C4)o3)ccc(F)c2F)c(F)c1` (centres unmarked) [Example 102, {5-[2-(4-Ethyl-2-fluoro-phenylamino)-3,4-difluoro-phenyl]-1,3,4-oxadiazol-2-yl}-methyl-(1-methyl-pyrrolidin-3-yl)-amine], in that order: 42.4% and 54.6%.

Values taken from patent US20050004186A1, “MEK inhibiting compounds” (Pfizer Inc, priority 2002, published 2005).
